These results are taken from patent US11332461B2, “2-(1H-pyrazol-3-yl) phenol compound and use thereof” (BEIJING JIALIN PHARMACEUTICAL INC., priority 2017, dated 2022).

One experiment deals with BRM protein (Homo sapiens, UniProt P51531). The experiment in a line: Ki of compounds (Table 1; no method described). It is filed as binding.
Experiment [1] has as its system H1299 cells (BRG1−/BRM+ cell line). The experiment in a line: Cell viability test, tetrazolium salt (MTT) method. It is filed as cell-based. The settings on record: Homo sapiens, NCI-H1299, cultured 3-4 days with compound, OD 490 nm. The source says:
A tetrazolium salt (MTT) method is used for determining the pharmacodynamics activity of the compounds of the present invention by using H1299 cells as the cell line, wherein the cell line has deletion of the BRG1 gene (BRG1−), and has no deletion of the BRM gene (BRM+). That is, the cells of the cell line cannot express a BRG1 protein, but can normally express a BRM protein. Small molecules that could prevent the BRM protein from interacting with the chromosomes in the cells, could prevent the BRM protein from exerting functions in the cells. According to the law of synergistic lethality, in a BRG1-gene-deleted cell, if the function of the BRM protein is blocked, cell death will be caused, thereby achieving the function that the small molecules kill cancer cells.
The specific steps of the test are as follows: • (1) different experimental cell lines are subcultured into a 96-well plate, and to prevent a marginal effect, the peripheries of the 96-well plate are added with 100 μL of PBS as a blank, wherein the cell line as used is H1299 cells (BRG1−/BRM+cell line); • (2) when the cells are in adherent growth to be 40-50%, different concentrations of drug molecules and DMSO as controls are added, the cells treated with the small molecules continue to be cultured for 3-4 days, and the medium is replaced by a medium supplemented with small molecules during the culture; • (3) after the 96-well plate treated with DMSO in the control group is full of the cells, each well is added with 20 μL of a MTT mother liquor (5 mg/mL); • (4) the cell plate is placed back into a […] incubator of 37° C. and continue to be incubated for 4 hours; • (5) the MTT solution is pipetted off, and each well is added with 150 μL DMSO; • (6) the 96-well plate is placed in a shaker at room temperature with protection from light for 15 min, until purple crystals are completely dissolved. • (7) The absorbance (OD) of each well is determined by a SpectraMax M5 multi-well plate reader (Molecular Devices, USA) at a wavelength of 490 nm.
According to a conventional detection method, the EC50 values of respective compounds (small molecules) are determined, and the results are summarized in Table 1.

Chain of BRM protein (P51531 whole entry): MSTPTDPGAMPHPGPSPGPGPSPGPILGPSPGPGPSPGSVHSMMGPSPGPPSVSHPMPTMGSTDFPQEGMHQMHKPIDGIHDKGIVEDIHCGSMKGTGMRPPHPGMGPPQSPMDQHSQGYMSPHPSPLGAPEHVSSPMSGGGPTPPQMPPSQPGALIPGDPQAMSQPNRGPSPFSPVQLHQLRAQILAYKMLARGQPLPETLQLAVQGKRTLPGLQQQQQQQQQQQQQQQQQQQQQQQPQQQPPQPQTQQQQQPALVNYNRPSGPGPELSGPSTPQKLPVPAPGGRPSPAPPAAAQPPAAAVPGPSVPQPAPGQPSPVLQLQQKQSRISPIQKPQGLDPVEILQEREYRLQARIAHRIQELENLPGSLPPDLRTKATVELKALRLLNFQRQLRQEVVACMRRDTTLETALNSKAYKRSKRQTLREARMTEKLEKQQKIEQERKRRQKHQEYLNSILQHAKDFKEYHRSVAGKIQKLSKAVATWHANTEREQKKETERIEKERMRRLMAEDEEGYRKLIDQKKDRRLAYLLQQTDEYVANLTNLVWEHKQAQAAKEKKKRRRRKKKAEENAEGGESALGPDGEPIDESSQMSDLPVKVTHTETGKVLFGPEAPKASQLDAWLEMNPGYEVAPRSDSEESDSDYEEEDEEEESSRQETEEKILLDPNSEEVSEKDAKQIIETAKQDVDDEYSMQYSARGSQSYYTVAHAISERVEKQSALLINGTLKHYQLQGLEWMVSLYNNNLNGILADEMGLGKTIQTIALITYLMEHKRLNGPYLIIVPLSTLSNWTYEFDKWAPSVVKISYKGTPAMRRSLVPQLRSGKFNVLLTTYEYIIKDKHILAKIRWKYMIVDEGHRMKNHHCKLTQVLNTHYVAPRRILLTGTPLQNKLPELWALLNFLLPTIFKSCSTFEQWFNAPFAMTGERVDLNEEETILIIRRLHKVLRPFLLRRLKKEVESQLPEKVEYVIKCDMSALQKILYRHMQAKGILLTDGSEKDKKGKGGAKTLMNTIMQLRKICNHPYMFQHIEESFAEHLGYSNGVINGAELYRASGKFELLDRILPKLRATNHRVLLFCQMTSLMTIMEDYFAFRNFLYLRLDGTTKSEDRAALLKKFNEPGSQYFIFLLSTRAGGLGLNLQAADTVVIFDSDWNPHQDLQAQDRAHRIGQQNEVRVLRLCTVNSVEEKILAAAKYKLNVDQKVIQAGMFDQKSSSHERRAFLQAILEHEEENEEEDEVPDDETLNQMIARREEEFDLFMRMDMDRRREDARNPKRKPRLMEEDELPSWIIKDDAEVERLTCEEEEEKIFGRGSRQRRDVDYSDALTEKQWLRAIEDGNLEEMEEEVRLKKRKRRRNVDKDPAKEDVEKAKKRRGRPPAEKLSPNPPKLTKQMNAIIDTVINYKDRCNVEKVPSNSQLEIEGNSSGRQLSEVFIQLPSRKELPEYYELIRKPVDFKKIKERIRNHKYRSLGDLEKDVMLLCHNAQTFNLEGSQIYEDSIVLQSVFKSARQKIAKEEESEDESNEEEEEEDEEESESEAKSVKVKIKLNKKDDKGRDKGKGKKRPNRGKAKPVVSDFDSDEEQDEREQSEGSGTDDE

Take `O=C(Nc1ccc(-c2cc(-c3cc(F)ccc3O)n[nH]2)cc1)c1cnccn1` [BRM2-124]: the Ki (commonly a dissociation constant, usually derived from enzyme kinetics or from competition with a known ligand) on BRM protein was 0.6 µM. In addition, the EC50 (in general, the concentration at which the effect is half-maximal) in experiment [1] turned out to be 1.5 µM.
The compound `CN1CCCN(c2ccc(-c3cc(-c4cc(F)ccc4O)n[nH]3)cc2)CC1` [BRM2-31] displayed a Ki on BRM protein of 0.9 µM. Also, the EC50 in experiment [1] was found to be 1.7 µM.
The corresponding values for `Nc1cc(-c2cc(F)ccc2O)n[nH]1` [BRM2-160] are 3.2 µM and 18.2 µM.
In turn, `COc1cccc(C(=O)Nc2ccc(-c3cc(-c4cc(F)ccc4O)n[nH]3)cc2)c1OC` [BRM2-113] registered a Ki at BRM protein of 2 µM. Moreover, the EC50 in experiment [1] was greater than 20 µM.
Regarding `CS(=O)(=O)c1ccc(-c2ccc(-c3cc(-c4cc(F)ccc4O)n[nH]3)cc2)cc1` [BRM2-30], the Ki at BRM protein was 2 µM. For the same compound, the EC50 in experiment [1] amounted to 10.5 µM.
The compound `O=C(Nc1cc(-c2cc(F)ccc2O)n[nH]1)c1ccccc1` [BRM2-162] yielded a Ki at BRM protein of 6.8 µM. In experiment [1], the EC50 was greater than 20 µM.
As for `O=C(Nc1ccc(-c2cc(-c3cc(F)ccc3O)n[nH]2)cc1)c1c(F)cccc1F` [BRM2-105], the Ki at BRM protein amounted to 4.1 µM. For the same compound, the EC50 in experiment [1] is greater than 20 µM.
Consider `O=C(NCCc1ccc(O)cc1)c1cc(-c2cc(F)ccc2O)n[nH]1` [BRM2-137], for which the affinity on BRM protein, expressed as Ki, was 1.1 µM. Further, the EC50 in experiment [1] was greater than 20 µM.
With `COC(=O)C(Cc1cnc[nH]1)NC(=O)c1cc(-c2cc(F)ccc2O)n[nH]1` (stereo not shown) [BRM2-152], the Ki on BRM protein is 0.5 µM. In addition, the EC50 in experiment [1] was 2.5 µM.
Turning to `Cc1ccccc1-c1cc(-c2cc(F)ccc2O)n[nH]1` [BRM2-11], the inhibitory constant (Ki) at BRM protein is 1.6 µM. In addition, the EC50 in experiment [1] was greater than 20 µM.
Take `O=C(Nc1ccc(-c2cc(-c3cc(F)ccc3O)n[nH]2)cc1)c1cccc(F)c1F` [BRM2-114]: the affinity at BRM protein corresponds to a Ki of 3 µM. Further, the EC50 in experiment [1] is 11.4 µM.
Compound `O=C(Nc1ccc(-c2cc(-c3cc(F)ccc3O)n[nH]2)cc1)c1ccccn1` [BRM2-112] displayed a Ki on BRM protein of 0.9 µM. Further, in experiment [1], the EC50 is 6.5 µM.
The corresponding values for `Cc1cccc(C)c1-c1ccc(-c2cc(-c3cc(F)ccc3O)n[nH]2)cc1` [BRM2-27] are 2.7 µM and greater than 20 µM.
`Nc1cccc(O)c1-c1cc(-c2ccc(Br)cc2)[nH]n1` [BRM2-6] registered a Ki on BRM protein of 2.3 µM. Besides, in experiment [1], the EC50 was found to be 12 µM.
The matching figures for `COC(=O)C(CCS(C)(=O)=O)NC(=O)c1cc(-c2cc(F)ccc2O)n[nH]1` (stereo not shown) [BRM2-149]: 1.2 µM and 8.9 µM.
`O=C(NCCc1ccc(Cl)cc1)c1cc(-c2cc(F)ccc2O)n[nH]1` [BRM2-140] displayed an inhibition constant (Ki) on BRM protein of 2 µM. The EC50 in experiment [1] amounted to 14.7 µM.
For the compound `CCc1ccc(-c2cc(-c3cc(F)ccc3O)n[nH]2)cc1` [BRM2-9], the inhibitory constant (Ki) at BRM protein was 4.6 µM. Also, the EC50 in experiment [1] was greater than 20 µM.
`CN1CCN(c2ccccc2-c2cc(-c3cc(F)ccc3O)n[nH]2)CC1` [BRM2-34] came in with a Ki at BRM protein of 1.4 µM. Also, the EC50 in experiment [1] was 7.6 µM.
At BRM protein, `O=C(Cc1ccc(F)cc1)Nc1cc(-c2cc(F)ccc2O)n[nH]1` [BRM2-168] returned a Ki of 2.5 µM. In addition, the EC50 in experiment [1] is 13.4 µM.
In turn, `O=C(NCc1ccc(O)cc1)c1cc(-c2cc(F)ccc2O)n[nH]1` [BRM2-138] showed a Ki on BRM protein of 2 µM. Besides, in experiment [1], the EC50 was greater than 20 µM.
For `Oc1ccc(F)cc1-c1cc(N2CC3CC2CN3c2ccccn2)[nH]n1` (stereo not shown) [BRM2-41], the Ki at BRM protein was 2.7 µM. Further, in experiment [1], the EC50 is 13.5 µM.
In the case of `O=C(NCCc1ccc(F)cc1)c1cc(-c2cc(F)ccc2O)n[nH]1` [BRM2-157], on BRM protein, the affinity, expressed as Ki, was 0.8 µM. For the same compound, the EC50 in experiment [1] came out at 4.3 µM.
Compound `Cc1ccc(C(=O)Nc2ccc(-c3cc(-c4cc(F)ccc4O)n[nH]3)cc2)cn1` [BRM2-111] displayed a Ki at BRM protein of 0.8 µM. Further, the EC50 in experiment [1] was 3.8 µM.
As for `O=C(Cc1ccc(O)cc1)Nc1cc(-c2cc(F)ccc2O)n[nH]1` [BRM2-164], the Ki on BRM protein stood at 6.9 µM. For the same compound, the EC50 in experiment [1] is greater than 20 µM.
The corresponding values for `O=C(Nc1ccc(-c2cc(-c3cc(F)ccc3O)n[nH]2)cc1)c1cccnc1` [BRM2-121] are 0.6 µM and 2.4 µM.
The corresponding values for `O=C(Nc1cc(-c2cc(F)ccc2O)n[nH]1)c1cnccn1` [BRM2-166] are 1.7 µM and 7.3 µM.
As to `O=C(Nc1ccc(-c2cc(-c3cc(F)ccc3O)n[nH]2)cc1)c1ccnc(Cl)c1` [BRM2-123], affinity at BRM protein was put at a Ki of 0.7 µM. For the same compound, the EC50 in experiment [1] was 2.8 µM.
Turning to `Oc1ccc(F)cc1-c1cc(-c2ccc(N3CCCCC3)cc2)[nH]n1` [BRM2-33], the Ki at BRM protein came out at 2.7 µM. Also, in experiment [1], the EC50 turned out to be 15 µM.
Turning to `CC(C)N(Cc1ccccc1)C(=O)c1cc(-c2cc(F)ccc2O)n[nH]1` [BRM2-145], affinity on BRM protein was put at a Ki of 5.3 µM. The EC50 in experiment [1] is greater than 20 µM.
`NC(=O)CCC(NC(=O)c1cc(-c2cc(F)ccc2O)n[nH]1)C(=O)N1CCOCC1` (stereo not shown) [BRM2-156]: on BRM protein, the Ki worked out at 0.4 µM. The EC50 in experiment [1] worked out at 1.7 µM.
As to `O=C(Nc1cc(-c2cc(F)ccc2O)n[nH]1)c1ccc(O)cc1` [BRM2-163], the Ki at BRM protein came to 4.4 µM. For the same compound, the EC50 in experiment [1] stood at 17.2 µM.
On to `CN1CCN(c2ccc(-c3cc(-c4cc(F)ccc4O)n[nH]3)cc2)CC1` [BRM2-32], for which the Ki at BRM protein worked out at 3.7 µM. In experiment [1], the EC50 was determined as 5.8 µM.
For `O=C(NCc1ccc(F)cc1)c1cc(-c2cc(F)ccc2O)n[nH]1` [BRM2-136], the Ki on BRM protein turned out to be 3 µM. Besides, in experiment [1], the EC50 amounted to 18 µM.
`O=C(Nc1ccc(-c2cc(-c3cc(F)ccc3O)n[nH]2)cc1)C12CC3CC(CC(C3)C1)C2` [BRM2-106] gave a Ki on BRM protein of 0.2 µM. For the same compound, the EC50 in experiment [1] stood at 0.9 µM.
In the case of `Nc1c(F)ccc(O)c1-c1cc(-c2ccc(-c3ccc(F)cc3)cc2)[nH]n1` [BRM2-22], affinity on BRM protein was put at a Ki of 1.5 µM. For the same compound, in experiment [1], the EC50 worked out at 3.3 µM.
On BRM protein, `CC(C)(C)c1ccc(-c2cc(-c3cc(F)ccc3O)n[nH]2)cc1` [BRM2-8] had a Ki of 2.2 µM. In experiment [1], the EC50 is 8.5 µM.
On BRM protein, `COC(=O)C1CCCN1C(=O)c1cc(-c2cc(F)ccc2O)n[nH]1` (stereo not shown) [BRM2-150] returned a Ki of 1.8 µM. In addition, the EC50 in experiment [1] is 10.3 µM.
`CN1CCN(c2cccc(-c3cc(-c4cc(F)ccc4O)n[nH]3)c2)CC1` [BRM2-39] returned a Ki on BRM protein of 1.8 µM. Further, in experiment [1], the EC50 turned out to be 9.3 µM.
The matching figures for `CN(Cc1ccccc1)C(=O)c1cc(-c2cc(F)ccc2O)n[nH]1` [BRM2-143]: 2.8 µM and 17.3 µM.
Take `CCN(Cc1ccccc1)C(=O)c1cc(-c2cc(F)ccc2O)n[nH]1` [BRM2-144]: on BRM protein, the Ki was 4.6 µM. The EC50 in experiment [1] was greater than 20 µM.
`Nc1c(F)ccc(O)c1-c1cc(-c2ccc(Br)cc2)[nH]n1` [BRM2-4]: the Ki at BRM protein was found to be 1.8 µM. Also, in experiment [1], the EC50 worked out at 6.7 µM.
